Measurements reported in patent publication US20100137313A1 (ASTRAZENECA AB, priority 2008, published 2010).

biological target: S. pneumoniae Topoisomerase IV ATPase (ParE) (Streptococcus pneumoniae serotype 4, UniProt Q59961); experiment: S. pneumoniae Topoisomerase IV ATPase inhibition; assay type: biochemical; details: values marked * are an average of two or more data points, read-out: % Inh (13 μM) of S. pneumoniae Topoisomerase IV ATPase
Method: S. pneumoniae Topoisomerase IV ATPase Inhibition Activity: Compounds may be tested for inhibition of S. pneumoniae ParE ATPase activity using an ammonium molybdate/malachite green-based phosphate detection assay (Lanzetta, P. A., L. J. Alvarez, P. S. Reinach, and O. A. Candia, 1979, 100: 95-97). Assays are performed in multiwell plates in 30 μl reactions containing: 20 mM Tris buffer pH 8.0, 50 mM ammonium acetate, 8.0 mM magnesium chloride, 0.5 mM ethylenediaminetetraacetic acid, 5% glycerol, 5 mM 1,4-Dithio-DL-threitol, 0.005% Brij-35, 5 μg/ml sheared salmon sperm DNA, 1.25 nM S. pneumoniae ParE, 160 μM ATP, and test compound in dimethylsulfoxide. Reactions are quenched with 30 μl of ammonium molybdate/malachite green detection reagent containing 1.2 mM malachite green hydrochloride, 8.5 mM ammonium molybdate tetrahydrate, and 1 M hydrochloric acid. Plates are read in an absorbance plate reader at 650 nm and percent inhibition values are calculated using dimethylsulfoxide (2%)-containing reactions as 0% inhibition and EDTA-containing ([…]) reactions as 100% inhibition controls. An IC50 measurement of compound potency for each compound can be determined from reactions performed in the presence of 10 different compound concentrations.
Many of the compounds of the invention were tested in an assay substantially similar to the assays described above for measuring the inhibition of E.coli GyrB ATPase, E. coli Topoisomerase IV ATPase, S. aureus GyrB ATPase, and S. pneumoniae Topoisomerase IV ATPase, and had IC50 values of <200 μM in one or more assays.

Sequence of S. pneumoniae Topoisomerase IV ATPase (ParE) (Q59961 whole entry): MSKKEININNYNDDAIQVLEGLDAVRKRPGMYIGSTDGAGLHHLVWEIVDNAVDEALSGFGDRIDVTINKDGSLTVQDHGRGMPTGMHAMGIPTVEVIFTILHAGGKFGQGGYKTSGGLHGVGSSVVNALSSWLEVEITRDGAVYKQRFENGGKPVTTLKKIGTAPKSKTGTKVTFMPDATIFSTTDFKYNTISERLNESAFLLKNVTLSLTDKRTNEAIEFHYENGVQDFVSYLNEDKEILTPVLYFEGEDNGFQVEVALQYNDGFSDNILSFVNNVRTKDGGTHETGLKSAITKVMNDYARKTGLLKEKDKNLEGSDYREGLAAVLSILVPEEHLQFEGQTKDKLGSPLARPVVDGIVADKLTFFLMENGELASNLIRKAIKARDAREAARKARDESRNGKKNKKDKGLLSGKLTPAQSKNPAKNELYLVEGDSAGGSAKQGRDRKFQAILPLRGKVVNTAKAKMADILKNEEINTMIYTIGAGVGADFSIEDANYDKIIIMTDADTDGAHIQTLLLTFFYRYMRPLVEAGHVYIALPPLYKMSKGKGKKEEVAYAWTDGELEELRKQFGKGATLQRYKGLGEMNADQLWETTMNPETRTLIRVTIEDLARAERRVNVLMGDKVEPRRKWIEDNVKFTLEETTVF

SMILES	inhibition at 13 µM [%]
COc1cc(C)cc(Nc2ncc(-c3cnc(OC)c(C(=O)O)c3)c(-n3ccc(C(F)(F)F)n3)n2)c1 [Example 760]	100
CN(C)CCCNc1nc(Nc2ccc(F)c(F)c2)ncc1-c1cccc(/C=C/C(=O)O)c1 [Example 336, (E)-3-(3-(2-(3,4-difluorophenylamino)-4-(3-(dimethylamino)propylamino)pyrimidin-5-yl)phenyl)acrylic acid]	83.7
O=C(O)/C=C/c1cccc(-c2cnc(Nc3ccc(F)c(Cl)c3)nc2-n2ccnn2)c1 [Example 333, (2E)-3-(3-{2-[(3-chloro-4-fluorophenyl)amino]-4-(1H-1,2,3-triazol-1-yl)pyrimidin-5-yl}phenyl)prop-2-enoic acid]	69.8
O=C(O)c1cncc(-c2cnc(Nc3cc(F)cc(F)c3)nc2N2CCOCC2)c1 [Example 388, 5-[2-(3,5-Difluoro-phenylamino)-4-morpholin-4-yl-pyrimidin-5-yl]nicotinic acid]	72
O=C(c1cccc(-c2cnc(Nc3ccc(F)c(Cl)c3)nc2-n2ccc(C(F)(F)F)n2)c1)N1CCOCC1 [Example 1151, (3-(2-(3-chloro-4-fluorophenylamino)-4-(3-(trifluoromethyl)-1H-pyrazol-1-yl)pyrimidin-5-yl)phenyl)(morpholino)methanone]	100
O=C(O)c1cc(-c2cnc(Nc3ccc(F)c(Cl)c3)nc2-n2ccc(C(F)(F)F)n2)cn(CCO)c1=O [Example 1083, 5-(2-(3-Chloro-4-fluorophenylamino)-4-(3-(trifluoromethyl)-1H-pyrazol-1-yl)pyrimidin-5-yl)-1-(2-hydroxyethyl)-2-oxo-1,2-dihydropyridine-3-carboxylic acid]	99
COc1cc(Nc2ncc(-c3cc(C(=O)O)c(=O)n(C)c3)c(-n3nc(C(F)(F)F)cc3C)n2)cc(OC)c1 [Example 918, 5-(2-(3,5-dimethoxyphenylamino)-4-(5-methyl-3-(trifluoromnethyl)-1H-pyrazol-1-yl)poyrimidin-5-yl)-1-methyl-2-oxo-1,2-dihydropyridine-3-carboxylic acid]	100
CONC(=O)c1cncc(-c2cnc(Nc3cc(OC)cc(OC)c3)nc2-n2ccc(C(F)(F)F)n2)c1 [Example 680, 5-{2-[(3,5-dimethoxyphenyl)amino]-4-[3-(trifluoromethyl)-1H-pyrazol-1-yl]pyrimidin-5-yl}-N-methoxypyridine-3-carboxamide]	100
O=C(O)c1cncc(-c2cnc(Nc3ccc(F)c(Cl)c3)nc2NCCc2ccccn2)c1 [Example 228, 5-[2-(3-Chloro-4-fluoro-phenylamino)-4-(2-pyridin-2-yl-ethylamino)-pyrimidin-5-yl]-nicotinic acid]	78.5
Cc1cc(C#N)cc(Nc2ncc(-c3cncc(C(=O)O)c3)c(-n3ccc(C(F)(F)F)n3)n2)c1 [Example 784, 5-{2-[(3-cyano-5-methylphenyl)amino]-4-[3-(trifluoromethyl)-1H-pyrazol-1-yl]pyrimidin-5-yl}pyridine-3-carboxylic acid]	70
COc1ncc(-c2cnc(Nc3cc(C)cc(Cl)c3)nc2-n2nc(C(F)(F)F)cc2C)cc1C(=O)O [Example 802, 5-{2-[(3-chloro-5-methylphenyl)amino]-4-[5-methyl-3-(trifluoromethyl)-1H-pyrazol-1-yl]pyrimidin-5-yl}-2-methoxypyridine-3-carboxylic acid]	100
O=C(O)/C=C/c1cccc(-c2cnc(Nc3ccc(F)c(Cl)c3)nc2N2CCCCC2)c1 [Example 297, (E)-3-(3-(2-(3-chloro-4-fluorophenylamino)-4-(piperidin-1-yl)pyrimidin-5-yl)phenyl)acrylic acid]	128
COc1cc(Nc2ncc(-c3cccc(/C=C/C(=O)O)c3)c(N[C@@H]3CCOC3)n2)cc(OC)c1 [Example 357, (R,E)-3-(3-(2-(3,5-dimethoxyphenylamino)-4-(tetrahydrofuran-3-ylamino)pyrimidin-5-yl)phenyl)acrylic acid]	85.3
O=C(O)c1cncc(-c2cnc(Nc3ccc(F)c(Cl)c3)nc2-n2cc(-c3ccccn3)cn2)c1 [Example 535]	100
COc1cc(Nc2ncc(-c3cnc(OC)c(C(=O)NS(C)(=O)=O)c3)c(-n3ccc(C(F)(F)F)n3)n2)cc(OC)c1 [Example 901, 5-(2-(3,5-dimethoxyphenylamino)-4-(3-(trifluoromethyl)-1H-pyrazol-1-yl)pyrimidin-5-yl)-2-methoxy-N-(methylsulfonyl)nicotinamide]	97
CONC(=O)c1cncc(-c2cnc(Nc3ccc(F)c(Cl)c3)nc2NCCc2c[nH]cn2)c1 [Example 475, 5-(2-[(3-chloro-4-fluorophenyl)amino]-4-{[2-(1H-imidazol-4-yl)ethyl]amino}pyrimidin-5-yl)-N-methoxypyridine-3-carboxamide]	93
Cc1cc(C)cc(Nc2ncc(-c3cnc(OCCS(C)(=O)=O)c(C(=O)O)c3)c(-n3ccc(C(F)(F)F)n3)n2)c1 [Example 964]	40
Fc1ccc(Nc2ncc(-c3cncnc3)c(N3CCC(N4CCOCC4)CC3)n2)cc1Cl [Example 62, N-(3-chloro-4-fluorophenyl)-4-(4-morpholin-4-ylpiperidin-1-yl)-5-pyrimidin-5-ylpyrimidin-2-amine]	71
Cc1cc(C(F)(F)F)nn1-c1nc(Nc2ccc(F)c(Cl)c2)ncc1-c1cncc(C(N)=O)c1 [Example 924, 5-(2-(3-chloro-4-fluorophenylamino)-4-(5-methyl-3-(trifluoromethyl)-1H-pyrazol-1-yl)pyrimidin-5-yl)nicotinamide]	97
N#Cc1cc(F)cc(Nc2ncc(-c3cccc(/C=C/C(=O)O)c3)c(N3CCOCC3)n2)c1 [Example 407, (E)-3-{3-[2-(3-Cyano-5-fluoro-phenylamino)-4-morpholin-4-yl-pyrimidin-5-yl]-phenyl}-acrylic acid]	86
COCCn1cc(-c2cnc(Nc3ccc(F)c(Cl)c3)nc2-n2nc(C(F)(F)F)cc2C)cc(C(=O)O)c1=O [Example 1082, 5-(2-(3-Chloro-4-fluorophenylamino)-4-(5-methyl-3-(trifluoromethyl)-1H-pyrazol-1-yl)pyrimidin-5-yl)-1-(2-methoxyethyl)-2-oxo-1,2-dihydropyridine-3-carboxylic acid]	100
COCC(COC)Nc1nc(Nc2ccc(F)c(Cl)c2)ncc1-c1cccc(/C=C/C(=O)O)c1 [Example 299]	98.7
C[C@@H](Nc1nc(Nc2ccc(F)c(Cl)c2)ncc1-c1cncc(C(=O)O)c1)C(=O)O [Example 240, 5-[2-[(3-chloro-4-fluorophenyl)amino]-4-[[(2R)-1-hydroxy-1-oxopropan-2-yl]amino]pyrimidin-5-yl]pyridine-3-carboxylic acid]	45.8
NC(=O)CCNc1nc(Nc2ccc(F)c(Cl)c2)ncc1-c1cncc(C(=O)O)c1 [Example 226, 5-[4-(2-Carbamoyl-ethylamino)-2-(3-chloro-4-fluoro-phenylamino)-pyrimidin-5-yl]-nicotinic acid]	79.5
COc1cc(Nc2ncc(-c3cnc(OCCN4CCOCC4)c(C(=O)O)c3)c(-n3nc(C(F)(F)F)cc3C)n2)cc(OC)c1 [Example 1136, 5-(2-(3,5-dimethoxyphenylamino)-4-(5-methyl-3-(trifluoromethyl)-1H-pyrazol-1-yl)pyrimidin-5-yl)-2-(2-morpholinoethoxy)nicotinic acid]	99
